Experimental data reported in PubChem BioAssay (NCI).
Values joined by “and” are separate entries in the source; they are usually repeats but may differ in a detail not shown here. Identical values can stand only once.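 The compound was tested at five concentrations on cells cultured in 96-well plates, with a 48-hour exposure period. At the GI50, growth is halved. TGI: total growth inhibition.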

Tests used:
Assay in all cases: inhibition of tumour cell growth, NCI panel, 48 h
[1] = test system: HL-60(TB) leukemia
[2] = test system: NCI/ADR-RES ovarian
[3] = test system: OVCAR-4 ovarian
[4] = test system: OVCAR-5 ovarian
[5] = test system: SNB-19 CNS
[6] = test system: PC-3 prostate
[7] = test system: LOX IMVI melanoma
[8] = test system: HCT-116 colon
[9] = test system: SF-268 CNS
[10] = test system: RPMI-8226 leukemia

SMILES	GI50 [1]	TGI [1]	GI50 [2]	TGI [2]	GI50 [3]	TGI [3]	GI50 [4]	TGI [4]	GI50 [5]	TGI [5]	GI50 [6]	TGI [6]	GI50 [7]	TGI [7]	GI50 [8]	TGI [8]	GI50 [9]	TGI [9]	GI50 [10]	TGI [10]
CNc1cc(-c2cccc(OC(F)(F)F)c2)nc2ccc(N3CCCC3)cc12	2.12 µM and 1.96 µM and 1.95 µM	4.65 µM and 4.94 µM and 4.28 µM	1.78 µM and 1.89 µM and 1.6 µM	3.87 µM and 3.79 µM and 3.19 µM	1.63 µM and 1.69 µM and 1.75 µM	3.33 µM and 3.19 µM and 3.36 µM	1.68 µM and 2.04 µM and 1.87 µM	3.18 µM and 3.73 µM and 3.34 µM	1.9 µM and 1.81 µM and 1.88 µM	3.57 µM and 3.22 µM and 3.36 µM	1.46 µM and 1.61 µM and 1.5 µM	2.95 µM and 3.1 µM and 3.01 µM	1.71 µM and 1.74 µM	3.24 µM and 3.28 µM and 3.23 µM	1.3 µM and 1.79 µM and 1.21 µM	2.58 µM and 3.32 µM and 2.52 µM	1.94 µM and 1.88 µM and 1.87 µM	3.51 µM and 3.77 µM	1.71 µM	4.19 µM
COc1ccc(-c2c(-c3ccc(C#N)c(F)c3)nc(N3CCC(N)CC3)n(C)c2=O)cc1F	10.8 µM	29.1 µM	21.6 µM	63.1 µM	29.3 µM	> 100 µM	14.4 µM	44.2 µM	31.6 µM	> 100 µM	12 µM	30.6 µM	13.1 µM	26 µM	13.1 µM	> 100 µM	20.4 µM	87 µM	18.4 µM	49.1 µM
CCCCCCCCN=C(NCCCCCCCC)SCc1cccc2ccccc12	1.23 µM	3.01 µM	1.62 µM	3.05 µM	1.32 µM	2.64 µM	1.36 µM	2.79 µM	1.83 µM	3.45 µM	1.49 µM	2.89 µM	1.59 µM	3.08 µM	0.73 µM	2.01 µM	1.83 µM	3.37 µM	2.05 µM	4.4 µM
COc1cc(C2NC(=O)C(C#N)=C(Nc3cccc(C)c3)S2)ccc1O (stereo not drawn)	> 100 µM	> 100 µM	> 100 µM	> 100 µM	> 100 µM	> 100 µM	> 100 µM	> 100 µM	> 100 µM	> 100 µM	> 100 µM	> 100 µM	> 100 µM	> 100 µM	> 100 µM	> 100 µM	> 100 µM	> 100 µM	> 100 µM	> 100 µM
COc1ccc(/C=C/c2ccnc3ccccc23)cc1OC		25.5 µM		40 µM		24.8 µM		27.6 µM		31.2 µM		36.4 µM		21.6 µM		25.1 µM		27.8 µM		57.1 µM
C=C(C)C(=O)Nc1ccc(-c2c(-c3ccc(Oc4nccc(C)n4)c(F)c3)c3c(N)ncnc3n2C)cc1	4.74 µM	> 100 µM	10.1 µM	31 µM	2.84 µM	33.8 µM	4.43 µM	20.9 µM	10.7 µM	> 100 µM	6.78 µM	67.5 µM	2.61 µM	12.8 µM	5.05 µM	19.8 µM	1.67 µM	16 µM	2.74 µM	17.3 µM
COc1ccc2c(c1)-c1c(c3cc(OC)ccc3n(CCN(C)C)c1=O)C2=O	1.38 µM	5.97 µM	0.659 µM	7.41 µM	0.799 µM	4 µM	3.14 µM	12.7 µM	0.812 µM	7.18 µM	1.49 µM	8.88 µM	0.658 µM	1.85 µM	0.241 µM	6.85 µM	0.362 µM	6.21 µM	0.445 µM	1.97 µM
CNC(=O)c1cc(Oc2ccc(NC(=O)Nc3cc(C(C)(C)C)nn3-c3ccc4ncccc4c3)c(F)c2)ccn1	3.33 µM and 2.53 µM	6.57 µM and 5.8 µM	2.65 µM and 3.36 µM	8.39 µM and 58.4 µM	2.38 µM and 2.49 µM	7.74 µM and 14.5 µM	2.1 µM and 3.34 µM		3.1 µM and 3.09 µM	8.87 µM and 7.98 µM	1.83 µM and 1.68 µM	6.78 µM and 5.17 µM	0.405 µM	2.08 µM	1.41 µM and 1.37 µM	7.28 µM and 5.94 µM	1.41 µM and 1.52 µM	5.16 µM and 4.49 µM	2.4 µM and 2.5 µM	6.51 µM and 5.91 µM
Cc1c(C(N)=O)sc2nc(C)n(/N=c3\scc(-c4ccccc4)n3Cc3ccccc3)c(=O)c12	6.68 µM	> 100 µM	2.9 µM	29.2 µM	2.5 µM	> 100 µM	4.33 µM	> 100 µM	4.8 µM	> 100 µM	2.15 µM	8.31 µM	3.54 µM	> 100 µM	2.13 µM	10.3 µM	4 µM	> 100 µM	13.9 µM	> 100 µM
Fc1ccc(Nc2nc(Nc3ccc(-c4nc5ccccc5[nH]4)cc3)c3cn[nH]c3n2)cc1	2.96 µM	6.92 µM	2.11 µM	5.04 µM	1.6 µM	3.6 µM	2.66 µM	7.62 µM	3.16 µM	9.61 µM	2.02 µM	4.53 µM	1.79 µM	3.62 µM	1.75 µM	3.58 µM	2.11 µM	5.4 µM	2.3 µM	5.2 µM
C[C@]12CCC(=O)C[C@@H]1CC[C@@H]1[C@@H]2CC[C@]2(C)[C@@H](OC(=O)N(CCCl)N=O)CC[C@@H]12	0.259 µM	> 33 µM	1.22 µM	28 µM	11.5 µM	29.7 µM	6.31 µM	22.4 µM	0.411 µM	17.8 µM	1.1 µM		0.625 µM	15.4 µM	2.89 µM	> 35.1 µM	0.0983 µM	8.85 µM	2.02 µM	6.89 µM
Oc1[nH]c2ccccc2c1C=Nc1ccc(-n2cncn2)cc1	12.9 µM	> 25 µM	15.7 µM	> 25 µM	> 18.9 µM	> 25 µM	> 25 µM	> 25 µM	> 25 µM	> 25 µM	> 20.1 µM	> 25 µM	> 19.2 µM	> 25 µM	> 22.1 µM	> 25 µM	> 24.1 µM	> 25 µM	18.3 µM	> 25 µM
CSc1nc(SC)c2c(C)cn(COCCOC(=O)c3ccccc3)c2n1		> 100 µM		> 100 µM		> 100 µM		> 100 µM		> 100 µM		> 100 µM		> 100 µM		> 100 µM		> 100 µM		> 100 µM
